Laboratory results from PMC9055924 (RSC Advances, 2020).

Molecular target: T1, TLP-1 (Prunus mume, UniProt A0ABM0NSQ8)
T1 sequence (A0ABM0NSQ8 27-249): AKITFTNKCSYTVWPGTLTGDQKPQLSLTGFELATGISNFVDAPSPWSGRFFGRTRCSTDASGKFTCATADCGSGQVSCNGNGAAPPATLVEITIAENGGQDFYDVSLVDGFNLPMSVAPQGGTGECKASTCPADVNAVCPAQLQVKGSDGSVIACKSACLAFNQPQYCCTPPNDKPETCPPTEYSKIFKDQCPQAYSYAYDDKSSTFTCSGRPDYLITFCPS
Assay: catechol oxidation, absorbance at […] nm
Type: biochemical
Conditions: read-out: Relative activity (%) / 10 (mM)

activity at 10000 µM [%] | SMILES
15.6 ± 0.44 | CCCCCCc1ccc(O)cc1O [4-Hexylresorcinol]
83.5 ± 2.24 | NC(=O)CC[C@H](N)C(=O)O [L-Glutamine]
